Reference: the supplement of paper PMC7108870

How the values were obtained:
[1] = test system: HEK293sieSTAT3(Y640F); experiment: drug sensitivity score (DSS), cytotoxicity CellTox Green (DSS (dimensionless)); higher = more cytotoxic; extreme values may be limits of the assay; details: 72 h; STAT3 variant: Y640F (constitutively active)
How it was run: (§1)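 A drug sensitivity score, based on the area of the dose-response curve, was calculated in Breeze after normalising values to negative and positive control wells. It came from HEK293 cells carrying a STAT3-dependent luciferase reporter and overexpressing wild-type or mutant STAT3, plated at 20 μl of 100,000 cells/ml onto compounds acoustically pre-plated at 5 concentrations in 10-fold dilutions in 384-well plates. Following 72 hours at 37°C and 5% CO2, CellTox Green fluorescence (485/520 nm) and then CellTiter-Glo luminescence were read on a PHERAstar FS.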

[2] = test system: HEK293sieSTAT3(wt); experiment: as above; details: 72 h; STAT3 variant: wild type
How it was run: as §1

[3] = test system: HEK293sieSTAT3(Y640F); experiment: drug sensitivity score (DSS), viability CellTiter-Glo (DSS (dimensionless)); higher = more growth inhibition; extreme values may be limits of the assay; details: 72 h; STAT3 variant: Y640F (constitutively active)
How it was run: as §1

[4] = test system: HEK293sieSTAT3(wt); experiment: as above; details: 72 h; STAT3 variant: wild type
How it was run: as §1

SMILES | drug sensitivity score [1] | drug sensitivity score [2] | drug sensitivity score [3] | drug sensitivity score [4]
Cc1cc([C@@H](C)Nc2ccccc2C(=O)O)c2nc(N3CCOCC3)cc(=O)n2c1 [AZD-6482] (top concentration tested 2500 nM) | 0 | 0.89 | 1.08 | 1.97
C[C@@H](Nc1cc(F)cc(F)c1)c1cc(C(=O)N(C)C)cc2c(=O)cc(N3CCOCC3)oc12 [AZD-8186] (top concentration tested 1000 nM) | 0 | 0 | 0 | 0.9
Cc1cc(C(=O)NOCCO)c(Nc2ccc(I)cc2F)n(C)c1=O [AZD-8330] (top concentration tested 10000 nM) | 0 | 0 | 7.16 | 0.01
CCN1CCN(Cc2ccc(Nc3ncc(F)c(-c4cc(F)c5nc(C)n(C(C)C)c5c4)n3)nc2)CC1 [Abemaciclib] (top concentration tested 2500 nM) | 0 | 0 | 0.98 | 0.4
CN(C)Cc1c(C(=O)NCCOc2ccc(C(=O)NO)cc2)oc2ccccc12 [Abexinostat] (top concentration tested 10000 nM) | 10.7 | 17.5 | 22.9 | 22.3
C[C@]12CC[C@H](O)CC1=CC[C@@H]1[C@@H]2CC[C@]2(C)C(c3cccnc3)=CC[C@@H]12 [Abiraterone] (top concentration tested 5000 nM) | 0 | 0 | 2.65 | 1.01
CN(C)C/C=C/C(=O)Nc1cc2c(Nc3ccc(F)c(Cl)c3)ncnc2cc1O[C@H]1CCOC1 [Afatinib] (top concentration tested 1000 nM) | 0 | 0 | 0.98 | 1.06
Cn1ncc(Cl)c1-c1cc(C(=O)N[C@H](CN)Cc2cccc(F)c2)sc1Cl [Afuresertib] (top concentration tested 1000 nM) | 0 | 0 | 6.74 | 9.38
COc1cccc2c1C(=O)c1c(O)c3c(c(O)c1C2=O)C[C@@](O)(/C(CO)=N/NC(=O)CCCCCN1C(=O)C=CC1=O)C[C@@H]3O[C@H]1C[C@H](N)[C@H](O)[C@H](C)O1 [Aldoxorubicin] (top concentration tested 1000 nM) | 0 | 0 | 19.7 | 21.1
CCc1cc2c(cc1N1CCC(N3CCOCC3)CC1)C(C)(C)c1[nH]c3cc(C#N)ccc3c1C2=O [Alectinib] (top concentration tested 1000 nM) | 0 | 2.75 | 3.02 | 4.73
COc1cc(Nc2ncc3c(n2)-c2ccc(Cl)cc2C(c2c(F)cccc2OC)=NC3)ccc1C(=O)O [Alisertib] (top concentration tested 10000 nM) | 0 | 8.65 | 9.16 | 12.1
Oc1ncnc2[nH]ncc12 [Allopurinol] (top concentration tested 10000 nM) | 0 | 0 | 3.38 | 0.7
Cc1nc(NC(=O)N2CCC[C@H]2C(N)=O)sc1-c1ccnc(C(C)(C)C(F)(F)F)c1 [Alpelisib] (top concentration tested 2500 nM) | 0 | 0 | 0.49 | 3.18
CN(C)c1nc(N(C)C)nc(N(C)C)n1 [Altretamine] (top concentration tested 10000 nM) | 0 | 0 | 0 | 0
CO[C@H]1/C=C\C=C(/C)C(=O)NC2=CC(=O)C(NCCN(C)C)=C(C[C@@H](C)C[C@H](OC)[C@H](O)[C@@H](C)/C=C(\C)[C@@H]1OC(N)=O)C2=O [Alvespimycin] (top concentration tested 1000 nM) | 7.84 | 16.2 | 14.9 | 16.6
CN1CC[C@H](c2c(O)cc(O)c3c(=O)cc(-c4ccccc4Cl)oc23)[C@H](O)C1 [Alvocidib] (top concentration tested 10000 nM) | 9.09 | 17.1 | 20.1 | 24.4
CCC1(c2ccc(N)cc2)CCC(=O)NC1=O (configuration not stated) [Aminoglutethimide] (top concentration tested 10000 nM) | 0 | 0 | 0.16 | 0.06
CN(C)CCN1C(=O)c2cccc3cc(N)cc(c23)C1=O [Amonafide] (top concentration tested 10000 nM) | 1.87 | 7.09 | 11.3 | 15
COc1cc(NS(C)(=O)=O)ccc1Nc1c2ccccc2nc2ccccc12 [Amsacrine] (top concentration tested 10000 nM) | 6.68 | 11.1 | 25.2 | 26.9
S=C(NCc1ccc2c(c1)OCO2)N1CCN(c2ncnc3c2oc2ccccc23)CC1 [Amuvatinib] (top concentration tested 10000 nM) | 3.08 | 8.39 | 5.74 | 5.71
O=C1CN2Cc3c(ccc(Cl)c3Cl)N=C2N1 [Anagrelide] (top concentration tested 10000 nM) | 0.01 | 0.62 | 0.64 | 0.64
CC(C)(C#N)c1cc(Cn2cncn2)cc(C(C)(C)C#N)c1 [Anastrozole] (top concentration tested 10000 nM) | 0 | 0 | 0.01 | 0

SMILES | drug sensitivity score [1] | drug sensitivity score [2] | drug sensitivity score [3] | drug sensitivity score [4]
N#CC1(c2ccc(NC(=O)c3cccnc3NCc3ccncc3)cc2)CCCC1 [Apatinib] (top concentration tested 10000 nM) | 0.2 | 0.3 | 0.11 | 0
Cc1c(CN2CCN(C(=O)[C@H](C)O)CC2)sc2c(N3CCOCC3)nc(-c3cnc(N)nc3)nc12 [Apitolisib] (top concentration tested 10000 nM) | 0 | 8.67 | 23.8 | 19.8
CC(C)c1c(C(=O)Nc2ccccc2)c(-c2ccccc2)c(-c2ccc(F)cc2)n1CC[C@@H](O)C[C@@H](O)CC(=O)O [Atorvastatin] (top concentration tested 10000 nM) | 9.06 | 6.93 | 6.61 | 8.29
CC(=O)OC[C@H]1O[C@@H]([S-])[C@H](OC(C)=O)[C@@H](OC(C)=O)[C@@H]1OC(C)=O.CCP(CC)CC.[Au+] [Auranofin] (top concentration tested 2500 nM) | 6.36 | 9.45 | 9.25 | 8.14
CNC(=O)c1ccccc1Sc1ccc2c(/C=C/c3ccccn3)n[nH]c2c1 [Axitinib] (top concentration tested 10000 nM) | 4.38 | 7.83 | 5.84 | 8.07
Nc1ncn([C@@H]2O[C@H](CO)[C@@H](O)[C@H]2O)c(=O)n1 [Azacitidine] (top concentration tested 10000 nM) | 0 | 0.87 | 2.86 | 2.72
Cc1cc(-c2nc(-c3ccc(OC(F)(F)F)cc3)no2)nn1Cc1ccnc(N2CCN(C3CC3)CC2)c1 [BAY 87-2243] (top concentration tested 1000 nM) | 0 | 0 | 12.6 | 12.5
Nc1nc(Nc2ccc3c(c2)CC[C@@H](N2CCCC2)CC3)nn1-c1cc2c(nn1)-c1ccccc1CCC2 [BGB324] (top concentration tested 10000 nM) | 6.14 | 11.9 | 10.2 | 12
CC[C@@H]1C(=O)N(C)c2cnc(Nc3ccc(C(=O)NC4CCN(C)CC4)cc3OC)nc2N1C1CCCC1 [BI 2536] (top concentration tested 1000 nM) | 2.98 | 20.1 | 23.5 | 24.7
COc1c(C)cnc(Cn2cnc3c(Cl)nc(N)nc32)c1C [BIIB021] (top concentration tested 10000 nM) | 9.95 | 24.2 | 24.6 | 27.9
O=C(Nc1cccc(Nc2ncc(Br)c(NCCc3cnc[nH]3)n2)c1)N1CCCC1 [BX-912] (top concentration tested 10000 nM) | 0 | 0 | 5.58 | 6.67
Cc1ccc(NC(=O)c2ccc(CN3CC[C@H](N(C)C)C3)c(C(F)(F)F)c2)cc1Nc1nccc(-c2cncnc2)n1 [Bafetinib] (top concentration tested 1000 nM) | 0 | 0 | 1.34 | 2.29
CCS(=O)(=O)N1CC(CC#N)(n2cc(-c3ncnc4[nH]ccc34)cn2)C1 [Baricitinib] (top concentration tested 2500 nM) | 0 | 0.42 | 2.8 | 1.02
O=C(/C=C/c1cccc(S(=O)(=O)Nc2ccccc2)c1)NO [Belinostat] (top concentration tested 10000 nM) | 8.83 | 8.71 | 16.9 | 13.1
Cn1c(CCCC(=O)O)nc2cc(N(CCCl)CCCl)ccc21 [Bendamustine] (top concentration tested 10000 nM) | 0 | 0 | 0.53 | 3.94
N#CC(c1ccnc(OCc2ccc(CN3CCOCC3)cc2)n1)c1nc2ccccc2s1 (configuration not stated) [Bentamapimod] (top concentration tested 10000 nM) | 0.96 | 0 | 5.3 | 8.85
C=C(c1ccc(C(=O)O)cc1)c1cc2c(cc1C)C(C)(C)CCC2(C)C [Bexarotene] (top concentration tested 10000 nM) | 0 | 0 | 2 | 3.75
CC(O)(CS(=O)(=O)c1ccc(F)cc1)C(=O)Nc1ccc(C#N)c(C(F)(F)F)c1 (configuration not stated) [Bicalutamide] (top concentration tested 10000 nM) | 0 | 0 | 3.98 | 4.54
CCNC(=O)CCC/C=C\C[C@@H]1[C@@H](/C=C/[C@@H](O)CCc2ccccc2)[C@H](O)C[C@@H]1O [Bimatoprost] (top concentration tested 5500 nM) | 0 | 0 | 0 | 0
Cn1cnc2c(F)c(Nc3ccc(Br)cc3F)c(C(=O)NOCCO)cc21 [Binimetinib] (top concentration tested 1000 nM) | 0 | 0 | 1.87 | 0.52
CC[C@H](NC(=O)[C@H](C)NC)C(=O)N1C[C@@H](O)C[C@H]1Cc1c(-c2[nH]c3cc(F)ccc3c2C[C@@H]2C[C@H](O)CN2C(=O)[C@H](CC)NC(=O)[C@H](C)NC)[nH]c2cc(F)ccc12 [Birinapant] (top concentration tested 1000 nM) | 19.5 | 30.4 | 7.4 | 15.6
